In US7919480B2, “Polymers having covalently bound antibiotic agents” (Ethicon, Inc., priority 2007, dated 2011):

Test system: S. aureus ATCC 6538
Experiment: log reduction assay (Example 4)
Type: cell-based
Procedure: Sample of ONM covalently bound to ORC (ORC-ONM-CV) from example 3 were tested for its in vitro efficacy by log reduction assay. In the log reduction assay, the test articles (squares of about 4.0 mg/piece) were challenged with about 1-2×10e4 CFU bacteria on the surface of the test articles for one hour. To facilitate the test of efficacy on surface of the test articles with covalent bound ONM, the inoculum was delivered in 10 ul/item, the small volume relative to the test articles allowed complete absorption of the inoculum by the test articles such that the inoculum localized on surfaces of the test articles. The inoculum was prepared in 20× potassium phosphate buffer, which maintained pH of the test articles close to neutral. The antimicrobial efficacy of ORC at neutral pH will be minimized, so that the log reduction would indicate the antibacterial efficacy of ONM rather than ORC. After the challenge, the test article was immersed in saline with shaking to remove survival bacteria and the survival bacteria were measured by plate count. The plate counts were conducted in trypticase soy agar and incubated at 37° C. for 24 hours.

POLYQUATERNIUM 1 [ONM control]
log reduction (log CFU of inoculum − log CFU of treated, 1 h challenge): 4.2 log
log CFU (surviving bacteria after 1 h challenge with about 1-2x10e4 CFU, neutral pH): 0.3 log CFU
